Reference: patent publication US20240360178A1, “MACROCYCLIC IMMUNOMODULATORS” (Bristol-Myers Squibb Company, priority 2021, published 2024)
Positions of bridges follow the written chain, without caps; N, C: chain ends. Non-standard residues stand in square brackets, D forms with d. Residues, ends and D or L forms follow the SMILES beside them. Ala(4-thiazolyl) = N[C@@H](Cc1cscn1)C(=O)O; Bip = N[C@@H](Cc1ccc(-c2ccccc2)cc1)C(=O)O; Phe(4-CN) = N#Cc1ccc(C[C@H](N)C(=O)O)cc1; NMeF = CN[C@@H](Cc1ccccc1)C(=O)O; NMeA = CN[C@@H](C)C(=O)O; Sar = CNCC(=O)O

Target: T1, human PD-1 (Jurkat-PD-1 cells) / PE-labeled human PD-L1-Ig (Homo sapiens, UniProt Q15116)
T1 construct: expressed in transfected cells; host or cells: Jurkat cell line over-expressing human PD-1
T1 sequence (Q15116 25-288): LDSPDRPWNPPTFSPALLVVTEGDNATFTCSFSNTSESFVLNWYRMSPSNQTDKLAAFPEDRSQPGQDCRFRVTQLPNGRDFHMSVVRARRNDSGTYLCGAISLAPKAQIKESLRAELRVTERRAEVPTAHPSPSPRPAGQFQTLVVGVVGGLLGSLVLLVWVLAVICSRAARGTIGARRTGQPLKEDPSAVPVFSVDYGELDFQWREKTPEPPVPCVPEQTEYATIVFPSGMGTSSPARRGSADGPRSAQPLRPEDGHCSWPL
Experiment: Jurkat-PD-1 Cell Binding High-Content Screening Assay (CBA); Jurkat hPD1-PDL1 assay
Conditions: Jurkat cell line over-expressing human PD-1; PE-labeled PD-L1-Ig 20 nM final; compound incubated 2 hours at 37° C.; read-out: Jurkat HPD1-PDL1 IC50
In short: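 Jurkat-hPD-1 cells; cpd 2 h, 37° C; then PE-PD-L1-Ig 20 nM final in DMEM/10% FCS; high-content imaging read-out.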

Row | Compound | IC50 [nM]
1 | CC(C)C[C@@H]1NC(=O)[C@H](C)NC(=O)CN(C)C(=O)[C@H](C)N(C)C(=O)[C@H](C(C)C)NC(=O)[C@H](Cc2ccc(-c3ccccc3)cc2)NC(=O)[C@H](CC(C)C)NC(=O)[C@H](Cc2c[nH]c3ccccc23)NC(=O)[C@H](CC(=O)O)NC(=O)[C@H](Cc2ccc(O)cc2)NC(=O)[C@H](Cc2ccccc2)NC(=O)CSC[C@@H](C(=O)NCC(N)=O)NC(=O)[C@H](CO)NC(=O)[C@H](C(C)C)NC1=O [Example 1130] ({CH2CO}-FYDWL[Bip]V[NMeA][Sar]ALVSCG-NH2; thioether N-14) | 500
2 | CC(C)C[C@@H]1NC(=O)[C@H](Cc2c[nH]c3ccccc23)NC(=O)[C@H](CC(=O)O)NC(=O)[C@H](Cc2ccc(O)cc2)NC(=O)[C@H](Cc2cscn2)NC(=O)CSC[C@@H](C(=O)NCC(N)=O)NC(=O)[C@H](CO)NC(=O)[C@H](C(C)C)NC(=O)[C@H](CC(C)C)NC(=O)[C@H](CC(N)=O)NC(=O)CN(C)C(=O)[C@H](C)N(C)C(=O)[C@H](C(C)C)NC(=O)[C@H](Cc2ccc(-c3ccccc3)cc2)NC1=O [Example 1132] ({CH2CO}-[Ala(4-thiazolyl)]YDWL[Bip]V[NMeA][Sar]NLVSCG-NH2; thioether N-14) | 530
3 | CC[C@H](C)[C@@H]1NC(=O)[C@H](Cc2ccc(-c3ccccc3)cc2)NC(=O)[C@H](CC(C)C)NC(=O)[C@H](Cc2c[nH]c3ccccc23)NC(=O)[C@H](CC(=O)O)NC(=O)[C@H](Cc2ccc(O)cc2)NC(=O)[C@H](Cc2ccccc2)NC(=O)CSC[C@@H](C(=O)NCC(N)=O)NC(=O)[C@H](CO)NC(=O)[C@H](C(C)C)NC(=O)[C@H](CC(C)C)NC(=O)[C@H](CC(N)=O)NC(=O)CN(C)C(=O)[C@H](C)N(C)C1=O [Example 1133] ({CH2CO}-FYDWL[Bip]I[NMeA][Sar]NLVSCG-NH2; thioether N-14) | 540
4 | CC(C)C[C@@H]1NC(=O)[C@H](Cc2c[nH]c3ccccc23)NC(=O)[C@H](CC(=O)O)NC(=O)[C@H](Cc2ccc(O)cc2)NC(=O)[C@H](Cc2ccccc2)NC(=O)CSC[C@@H](C(=O)N[C@@H](C)C(N)=O)NC(=O)[C@H](CO)NC(=O)[C@H](C(C)C)NC(=O)[C@H](CC(C)C)NC(=O)[C@H](CCCCN)NC(=O)CN(C)C(=O)[C@H](C)N(C)C(=O)[C@H](CCC(=O)O)NC(=O)[C@H](Cc2ccc(-c3ccccc3)cc2)NC1=O [Example 1134] ({CH2CO}-FYDWL[Bip]E[NMeA][Sar]KLVSCA-NH2; thioether N-14) | 540

More lines, in order of falling IC50, values ahead:

Row | IC50 [nM] | Compound
5 | 500 | CC(C)C[C@@H]1NC(=O)[C@H](CCCNC(=N)N)NC(=O)[C@H](Cc2ccccc2)N(C)C(=O)[C@H](C)N(C)C(=O)[C@H](CCCNC(=N)N)NC(=O)[C@H](Cc2ccc(-c3ccccc3)cc2)NC(=O)[C@H](C(C)C)NC(=O)[C@H](Cc2c[nH]c3ccccc23)NC(=O)[C@H](CC(=O)O)NC(=O)[C@H](Cc2ccc(O)cc2)NC(=O)[C@H](Cc2ccccc2)NC(=O)CSC[C@@H](C(=O)NCC(N)=O)NC(=O)[C@H]([C@@H](C)O)NC(=O)[C@H](C(C)C)NC1=O [Example 1129] ({CH2CO}-FYDWV[Bip]R[NMeA][NMeF]RLVTCG-NH2; thioether N-14)
6 | 490 | CC(C)C[C@@H]1NC(=O)[C@H](Cc2c[nH]c3ccccc23)NC(=O)[C@H](CC(=O)O)NC(=O)[C@H](Cc2ccc(O)cc2)NC(=O)[C@H](Cc2ccc(C#N)cc2)NC(=O)CSC[C@@H](C(=O)NCC(N)=O)NC(=O)[C@H](CO)NC(=O)[C@H](C(C)C)NC(=O)[C@H](CC(C)C)NC(=O)[C@H](CC(N)=O)NC(=O)CN(C)C(=O)[C@H](C)N(C)C(=O)[C@H](C(C)C)NC(=O)[C@H](Cc2ccc(-c3ccccc3)cc2)NC1=O [Example 1128] ({CH2CO}-[Phe(4-CN)]YDWL[Bip]V[NMeA][Sar]NLVSCG-NH2; thioether N-14)
